“And” between values parts separate entries of the source, which are not always exact repeats. Equal entries are not always repeated. Inconclusive results and toxic doses are left out.
Test system: P388 leukemia ip, CD2F1 mice, survival T/C
Experiment: NCI In Vivo Anticancer Drug Screen. Data for tumor model P388 Leukemia (intraperitoneal) in CD2F1 (CDF1) mice
Settings: endpoint: median survival time, higher = longer survival
Procedure, shortened: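 Mice carrying the transplanted tumor received test compound or vehicle. Survival was recorded in each group, and the value is the treated-group measurement divided by that of the vehicle-treated control group.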

[1] = dose: 50.0 mg/kg/injection, schedule: Q01DX005 (ip), vehicle: saline with Tween-80
[2] = dose: 100.0 mg/kg/injection, schedule: Q01DX005 (ip), vehicle: saline with Tween-80
[3] = dose: 200.0 mg/kg/injection, schedule: Q01DX005 (ip), vehicle: saline with Tween-80
[4] = dose: 25.0 mg/kg/injection, schedule: Q01DX009 (ip), vehicle: saline with Tween-80
[5] = dose: 50.0 mg/kg/injection, schedule: Q01DX009 (ip), vehicle: saline with Tween-80
[6] = dose: 100.0 mg/kg/injection, schedule: Q01DX009 (ip), vehicle: saline with Tween-80
[7] = dose: 50.0 mg/kg/injection, schedule: Q01DX009 (ip), vehicle: Klucel (hydroxypropylcellulose) (HPC)
[8] = dose: 100.0 mg/kg/injection, schedule: Q01DX009 (ip), vehicle: Klucel (hydroxypropylcellulose) (HPC)
[9] = dose: 200.0 mg/kg/injection, schedule: Q01DX009 (ip), vehicle: Klucel (hydroxypropylcellulose) (HPC)
[10] = dose: 200.0 mg/kg/injection, schedule: Q01DX009 (ip), vehicle: saline with Tween-80
[11] = dose: 50.0 mg/kg/injection, schedule: Q01DX005 (ip), vehicle: saline
[12] = dose: 100.0 mg/kg/injection, schedule: Q01DX005 (ip), vehicle: saline

SMILES: CCC1=C[C@H]2CN(CCc3c([nH]c4ccccc34)[C@@](C(=O)OC)(c3cc4c(cc3OC)N(C)[C@H]3C(C(=O)OC)=C[C@]5(CC)C=CCN6CC[C@]43[C@@H]65)C2)C1
- T/C (dose: 1.0 mg/kg/injection, schedule: Q01DX001 (ip), vehicle: other): 101 % of control
- T/C (dose: 2.0 mg/kg/injection, schedule: Q01DX001 (ip), vehicle: other): 99 % of control
- T/C (dose: 4.0 mg/kg/injection, schedule: Q01DX001 (ip), vehicle: other): 105 % of control
- T/C (dose: 8.0 mg/kg/injection, schedule: Q01DX001 (ip), vehicle: other): 107 % of control and 120 % of control
- T/C (dose: 16.0 mg/kg/injection, schedule: Q01DX001 (ip), vehicle: distilled water + Tween-80): 124 % of control
- T/C (dose: 16.0 mg/kg/injection, schedule: Q01DX001 (ip), vehicle: other): 113 % of control
- T/C (dose: 64.0 mg/kg/injection, schedule: Q01DX001 (ip), vehicle: distilled water + Tween-80): 171 % of control
- T/C (dose: 64.0 mg/kg/injection, schedule: Q01DX001 (ip), vehicle: other): 121 % of control
- T/C (dose: 128.0 mg/kg/injection, schedule: Q01DX001 (ip), vehicle: other): 183 % of control

SMILES: CCN(CC)C(=O)C(C)C1=NS(=O)(=O)c2ccccc21 (configuration not stated)
- T/C (dose: 75.0 mg/kg/injection, schedule: Q04DX003 (ip), vehicle: Klucel (hydroxypropylcellulose) (HPC)): 101 % of control
- T/C (dose: 150.0 mg/kg/injection, schedule: Q04DX003 (ip), vehicle: Klucel (hydroxypropylcellulose) (HPC)): 99 % of control
- T/C (dose: 300.0 mg/kg/injection, schedule: Q04DX003 (ip), vehicle: Klucel (hydroxypropylcellulose) (HPC)): 100 % of control

SMILES: Cc1ccccc1NP1(=O)OCCCN1Cc1ccccc1Cl (configuration not stated)
- T/C [1]: 99 % of control
- T/C [2]: 93 % of control
- T/C [3]: 93 % of control

SMILES: Cc1nc(C#N)c(=N)n(CCCO)c1-c1ccccc1
- T/C (dose: 60.0 mg/kg/injection, schedule: Q01DX005 (ip), vehicle: saline with Tween-80): 109 % of control
- T/C (dose: 120.0 mg/kg/injection, schedule: Q01DX005 (ip), vehicle: saline with Tween-80): 101 % of control

SMILES: CCOC(=O)CSc1nnc(-c2ccc3c(c2)OCO3)o1
- T/C (dose: 62.5 mg/kg/injection, schedule: Q01DX001 (ip), vehicle: Klucel (hydroxypropylcellulose) (HPC)): 102 % of control
- T/C (dose: 125.0 mg/kg/injection, schedule: Q01DX001 (ip), vehicle: Klucel (hydroxypropylcellulose) (HPC)): 105 % of control
- T/C (dose: 250.0 mg/kg/injection, schedule: Q01DX001 (ip), vehicle: Klucel (hydroxypropylcellulose) (HPC)): 108 % of control

SMILES: N#CC(C#N)C(=O)c1ccccc1
- T/C (dose: 50.0 mg/kg/injection, schedule: Q04DX003 (ip), vehicle: saline): 103 % of control
- T/C (dose: 100.0 mg/kg/injection, schedule: Q04DX003 (ip), vehicle: saline): 102 % of control
- T/C (dose: 200.0 mg/kg/injection, schedule: Q04DX003 (ip), vehicle: saline): 95 % of control
- T/C (dose: 400.0 mg/kg/injection, schedule: Q04DX003 (ip), vehicle: saline): 95 % of control

SMILES: Cn1c([N+](=O)[O-])cnc1-c1nc(/C=N/N2CCS(=O)(=O)CC2)cs1
- T/C [4]: 96 % of control
- T/C [5]: 96 % of control
- T/C [6]: 90 % of control

SMILES: CCCCCCCCCCCCCCCCCCOCC(CO)OC (configuration not stated)
- T/C [1]: 101 % of control and 115 % of control
- T/C [2]: 115 % of control and 123 % of control
- T/C [3]: 123 % of control
- T/C (dose: 400.0 mg/kg/injection, schedule: Q01DX005 (ip), vehicle: saline with Tween-80): 97 % of control

SMILES: CCn1c2ccccc2c2cc(N)c(N=Nc3cc(OC)c(N=Nc4ccc([N+](=O)[O-])cc4)cc3OC)cc21
- T/C [7]: 104 % of control
- T/C [8]: 105 % of control
- T/C [9]: 112 % of control

SMILES: O=C1OC(c2ccccc2)(c2ccccc2)C2CC12c1ccccc1 (configuration not stated)
- T/C (dose: 100.0 mg/kg/injection, schedule: Q01DX001 (ip), vehicle: Klucel (hydroxypropylcellulose) (HPC)): 95 % of control
- T/C (dose: 200.0 mg/kg/injection, schedule: Q01DX001 (ip), vehicle: Klucel (hydroxypropylcellulose) (HPC)): 95 % of control
- T/C (dose: 400.0 mg/kg/injection, schedule: Q01DX001 (ip), vehicle: Klucel (hydroxypropylcellulose) (HPC)): 88 % of control

SMILES: CC(=O)NC1=CC(=Nc2ccc(N(C)C)cc2)C=CC1=O
- T/C (dose: 3.12 mg/kg/injection, schedule: Q01DX005 (ip), vehicle: saline): 114 % of control
- T/C (dose: 6.25 mg/kg/injection, schedule: Q01DX005 (ip), vehicle: saline): 112 % of control
- T/C (dose: 12.5 mg/kg/injection, schedule: Q01DX005 (ip), vehicle: saline): 102 % of control

SMILES: CCOC(=O)C(CC/C=C(\C)CC/C=C/COC(=O)N(C(C)C)C(C)C)P(=O)(OCC)OCC (configuration not stated)
- T/C [1]: 109 % of control
- T/C [2]: 106 % of control
- T/C [3]: 109 % of control

SMILES: Cc1c/c(=N\O)c2c(=O)ccoc2n1O
- T/C (dose: 50.0 mg/kg/injection, schedule: Q01DX009 (ip), vehicle: suspension in saline): 99 % of control
- T/C (dose: 100.0 mg/kg/injection, schedule: Q01DX009 (ip), vehicle: suspension in saline): 98 % of control
- T/C (dose: 200.0 mg/kg/injection, schedule: Q01DX009 (ip), vehicle: suspension in saline): 97 % of control

SMILES: CN1C2(c3ccccc3)OC(=O)C1(c1ccccc1)C1C(=O)C3C4c5ccccc5C(c5ccccc54)C3C(=O)C12 (configuration not stated)
- T/C [7]: 94 % of control
- T/C [8]: 100 % of control
- T/C [9]: 94 % of control

SMILES: O=S(=O)(O)CNc1ccc(Cl)cc1
- T/C [5]: 113 % of control
- T/C [6]: 113 % of control
- T/C [10]: 106 % of control

SMILES: CCCCOC(=O)c1ccccc1OP(=O)(N(C)C)N(C)C
- T/C [11]: 107 % of control
- T/C [12]: 103 % of control

SMILES: CONC(C)=O
- T/C (dose: 60.0 mg/kg/injection, schedule: Q01DX005 (ip), vehicle: saline): 98 % of control
- T/C (dose: 120.0 mg/kg/injection, schedule: Q01DX005 (ip), vehicle: saline): 100 % of control
- T/C (dose: 240.0 mg/kg/injection, schedule: Q01DX005 (ip), vehicle: saline): 100 % of control

SMILES: CN/N=C(/C)C(=O)O
- T/C [11]: 106 % of control
- T/C [12]: 99 % of control
- T/C (dose: 200.0 mg/kg/injection, schedule: Q01DX005 (ip), vehicle: saline): 99 % of control

SMILES: Cc1ccc(S(=O)(=O)OC2CCCC2)cc1
- T/C (dose: 50.0 mg/kg/injection, schedule: Q01DX009 (ip), vehicle: other): 100 % of control
- T/C (dose: 100.0 mg/kg/injection, schedule: Q01DX009 (ip), vehicle: other): 103 % of control
- T/C (dose: 200.0 mg/kg/injection, schedule: Q01DX009 (ip), vehicle: other): 89 % of control

SMILES: CC(C)C1C(=O)N(c2ccccc2)N(C)C1C (configuration not stated)
- T/C (dose: 100.0 mg/kg/injection, schedule: Q04DX003 (ip), vehicle: Klucel (hydroxypropylcellulose) (HPC)): 100 % of control
- T/C (dose: 200.0 mg/kg/injection, schedule: Q04DX003 (ip), vehicle: Klucel (hydroxypropylcellulose) (HPC)): 104 % of control

SMILES: Cc1cc(C)c(C(CC(=O)O)C(CC(=O)O)c2c(C)cc(C)cc2C)c(C)c1 (configuration not stated)
- T/C (dose: 60.0 mg/kg/injection, schedule: Q01DX005 (ip), vehicle: Klucel (hydroxypropylcellulose) (HPC)): 90 % of control

SMILES: O=C(Nc1ccccc1)c1c(O)[nH]c(=O)[nH]c1=O
- T/C [2]: 163 % of control and 207 % of control
- T/C [3]: 204 % of control

SMILES: O=c1nc2scc(-c3ccccc3)n2c2sc3c(c12)CCCC3
- T/C (dose: 100.0 mg/kg/injection, schedule: Q01DX001 (ip), vehicle: saline with Tween-80): 106 % of control
- T/C (dose: 200.0 mg/kg/injection, schedule: Q01DX001 (ip), vehicle: saline with Tween-80): 95 % of control
- T/C (dose: 400.0 mg/kg/injection, schedule: Q01DX001 (ip), vehicle: saline with Tween-80): 93 % of control

SMILES: CCCN(CCC)C(=O)C(c1ccccc1)C1(O)CCCC1 (configuration not stated)
- T/C (dose: 50.0 mg/kg/injection, schedule: Q01DX005 (ip), vehicle: Klucel (hydroxypropylcellulose) (HPC)): 101 % of control
- T/C (dose: 100.0 mg/kg/injection, schedule: Q01DX005 (ip), vehicle: Klucel (hydroxypropylcellulose) (HPC)): 102 % of control
- T/C (dose: 200.0 mg/kg/injection, schedule: Q01DX005 (ip), vehicle: Klucel (hydroxypropylcellulose) (HPC)): 102 % of control

SMILES: S=P(c1ccccc1)(N1CC1)N1CC1
- T/C [4]: 109 % of control
- T/C (dose: 25.0 mg/kg/injection, schedule: Q04DX003 (ip), vehicle: saline with Tween-80): 104 % of control
- T/C [5]: 104 % of control
- T/C (dose: 50.0 mg/kg/injection, schedule: Q04DX003 (ip), vehicle: saline with Tween-80): 104 % of control
- T/C [6]: 86 % of control
- T/C (dose: 100.0 mg/kg/injection, schedule: Q04DX003 (ip), vehicle: saline with Tween-80): 100 % of control and 113 % of control

SMILES: CC(C)=CCc1c2c(c(O)c3c(=O)c(-c4ccc(O)c(O)c4)coc13)C=CC(C)(C)O2
- T/C [4]: 99 % of control
- T/C [5]: 105 % of control
- T/C [6]: 99 % of control
- T/C [10]: 106 % of control

SMILES: O=C(NC(C(=O)NO)C(NO)c1ccccc1)c1ccccc1 (configuration not stated)
- T/C [1]: 103 % of control
- T/C [2]: 102 % of control
- T/C [3]: 102 % of control
